# From the supplement of paper PMC10307832
# Experiments:
# Test in all cases: relative viability (nuclei count vs DMSO), 5 days (fraction); higher = more cells survive
# [1] = compound: Cc1ccc2nc(NCCN)c3ncc(C)n3c2c1
# In short: (§1)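 Five library-drug doses, separated by factors of √10, were pinned into 1536-well plates holding lung cancer cell lines after an overnight stay at 37 °C. Cells were fixed, permeabilised and Hoechst-stained in one step after 5 days without medium change, then imaged at 4×. Viability compares treated-well with vehicle-well nuclei, counted in MetaXpress, as a median across plates. Passing plates had control CV below 25% and at least one doubling.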
# Salubrinal = compound: O=C(/C=C/c1ccccc1)NC(NC(=S)Nc1cccc2cccnc12)C(Cl)(Cl)Cl [Salubrinal]
# In short: as §1
# [2] = compound: Cc1ccc2nc(NCCN)c3ncc(C)n3c2c1 + COc1cccc2cc(-c3nc([C@H]4CC[C@H](C(=O)O)CC4)n4ncnc(N)c34)[nH]c12 [OSI-027] (partner 0.5 µM)
# In short: (§2)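 Dosing by pin tool came one day after lung cancer cell lines were seeded in 1536-well plates, using either one drug or a fixed anchor-drug dose plus five library-drug doses (not always all listed) in √10 steps. After 5 days, nuclei were counted on 4× images. Relative viability is treated-well nuclei count divided by vehicle-well nuclei count, and values are medians of duplicate plates.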
# Salubrinal + Pemetrexed = compound: O=C(/C=C/c1ccccc1)NC(NC(=S)Nc1cccc2cccnc12)C(Cl)(Cl)Cl [Salubrinal] + Nc1nc2[nH]cc(CCc3ccc(C(=O)N[C@@H](CCC(=O)O)C(=O)O)cc3)c2c(=O)[nH]1 [Pemetrexed] (partner 0.2 µM)
# In short: as §2
Cell Line,relative viability ([1]; 0.04 µM),relative viability ([1]; 0.1265 µM),relative viability ([1]; 0.4 µM),relative viability ([1]; 1.265 µM),relative viability ([1]; 4 µM),relative viability (Salubrinal; 0.08 µM),relative viability (Salubrinal; 0.253 µM),relative viability (Salubrinal; 0.8 µM),relative viability (Salubrinal; 2.53 µM),relative viability (Salubrinal; 8 µM),relative viability ([2]; first compound 0.04 µM),relative viability ([2]; first compound 0.1265 µM),relative viability ([2]; first compound 0.4 µM),relative viability ([2]; first compound 1.265 µM),relative viability ([2]; first compound 4 µM),relative viability (Salubrinal + Pemetrexed; first compound 0.08 µM),relative viability (Salubrinal + Pemetrexed; first compound 0.253 µM),relative viability (Salubrinal + Pemetrexed; first compound 0.8 µM),relative viability (Salubrinal + Pemetrexed; first compound 2.53 µM),relative viability (Salubrinal + Pemetrexed; first compound 8 µM)
NCI-H358,0.988,1.01,0.933,1.07,0.919,1.06,1.02,1.09,0.908,0.795,0.807,0.708,0.694,0.797,0.858,0.181,0.176,0.157,0.153,0.168
NCI-H441,1.1,1.05,1.09,1.11,0.964,1.25,1.02,1.34,1.03,0.784,0.615,0.785,0.684,0.654,0.581,0.271,0.274,0.274,0.275,0.255
NCI-H460,0.99,0.971,0.99,0.999,0.943,1.16,0.946,1.11,0.983,0.918,0.674,0.598,0.67,0.718,0.537,0.0573,0.0837,0.0626,0.0636,0.0643
NCI-H520,1.13,0.912,0.933,0.915,0.845,1.05,1.01,1.07,1.03,1.14,0.301,0.23,0.263,0.237,0.305,0.762,0.523,0.777,0.716,0.734
NCI-H522,0.882,1.04,0.909,1.03,1.02,0.947,0.819,1.1,1.02,0.921,0.622,0.802,0.649,0.657,0.613,1.24,0.933,1.09,1.06,1.07
NCI-H596,0.952,0.934,1.02,0.937,0.909,1.08,0.89,1.01,0.896,0.982,0.709,0.749,0.617,0.709,0.737,0.493,0.518,0.56,0.509,0.466
NCI-H647,1.13,0.993,0.934,0.865,0.741,1.18,0.98,1.11,0.964,0.884,0.566,0.607,0.637,0.634,0.719,0.199,0.174,0.184,0.196,0.147
NCI-H650,1.03,1.03,0.797,1.02,0.941,0.839,1.04,1.08,1.11,0.912,0.558,0.585,0.443,0.538,0.513,1.03,1.14,1.05,1.05,0.895
NCI-H661,1,1.03,0.996,0.985,0.969,1.09,0.928,0.992,0.937,0.998,0.808,0.713,0.732,0.82,0.693,0.942,0.808,0.936,0.89,0.91
NCI-H838,1.03,0.951,0.912,0.907,0.929,1.1,0.987,1.07,1.07,0.922,0.462,0.397,0.445,0.385,0.398,0.253,0.231,0.257,0.267,0.23
NCI-H1355,1.05,0.983,0.938,0.995,0.935,1.11,0.941,1.03,0.979,0.955,0.447,0.447,0.335,0.384,0.404,1.11,1.02,1.1,1.03,1.09
NCI-H1395,0.959,0.941,0.844,0.859,0.633,0.882,1.01,1.08,1.01,0.769,0.672,0.67,0.558,0.767,0.655,0.96,1.09,1.03,0.984,0.718
NCI-H1437,1.02,0.982,0.988,0.939,0.873,0.992,0.922,1.12,1.02,0.968,1,0.871,0.886,0.879,0.884,0.413,0.273,0.292,0.322,0.297
NCI-H1563,1.02,0.909,0.947,1.03,1.01,1.01,0.942,0.943,0.919,0.911,0.78,0.769,0.768,0.796,0.728,0.671,0.761,0.907,0.784,0.798
NCI-H1648,0.858,0.903,0.918,0.615,0.679,0.921,0.788,0.741,0.741,0.356,0.242,–,0.249,–,0.233,0.843,0.637,0.759,0.705,0.584
NCI-H1650,0.983,0.903,0.865,0.915,0.772,1.1,0.795,1.03,0.893,0.912,0.784,0.563,0.53,0.548,0.438,0.354,0.3,0.398,0.383,0.376

Cell Line,relative viability ([1]; 0.04 µM),relative viability ([1]; 0.1265 µM),relative viability ([1]; 0.4 µM),relative viability ([1]; 1.265 µM),relative viability ([1]; 4 µM),relative viability (Salubrinal; 0.08 µM),relative viability (Salubrinal; 0.253 µM),relative viability (Salubrinal; 0.8 µM),relative viability (Salubrinal; 2.53 µM),relative viability (Salubrinal; 8 µM),relative viability ([2]; first compound 0.04 µM),relative viability ([2]; first compound 0.1265 µM),relative viability ([2]; first compound 0.4 µM),relative viability ([2]; first compound 1.265 µM),relative viability ([2]; first compound 4 µM),relative viability (Salubrinal + Pemetrexed; first compound 0.08 µM),relative viability (Salubrinal + Pemetrexed; first compound 0.253 µM),relative viability (Salubrinal + Pemetrexed; first compound 0.8 µM),relative viability (Salubrinal + Pemetrexed; first compound 2.53 µM),relative viability (Salubrinal + Pemetrexed; first compound 8 µM)
NCI-H1651,1.02,0.95,0.991,0.971,0.917,1.13,0.905,1.13,0.964,0.988,0.787,0.708,0.681,0.613,0.604,0.655,0.393,0.781,0.604,0.6
NCI-H1666,1.08,0.951,0.962,0.993,0.993,0.953,0.99,0.987,0.888,1.2,0.839,0.799,0.887,0.816,0.774,0.837,0.804,0.989,0.864,0.845
NCI-H1734,0.979,0.99,0.886,0.9,0.979,1.02,0.882,1.14,1.01,0.909,0.619,0.557,0.502,0.551,0.543,0.423,0.454,0.41,0.427,0.409
NCI-H1755,1.07,0.979,0.964,0.992,0.962,1.07,1.04,1.06,0.959,0.968,0.77,0.738,0.718,0.72,0.655,0.379,0.513,0.401,0.638,0.395
NCI-H1792,0.984,0.987,–,0.963,0.826,1.05,–,1.32,1.01,0.811,0.683,0.756,0.707,0.704,0.638,1.07,–,1.24,0.795,0.572
NCI-H1793,0.954,0.946,0.78,0.878,0.882,1.14,1.01,0.938,1.04,0.823,0.305,0.314,0.236,0.317,0.29,1.13,0.81,1.24,0.805,0.76
NCI-H1915,0.958,0.998,0.705,0.93,0.954,0.973,0.856,1.12,1.01,0.973,0.641,0.605,–,0.696,0.594,0.477,–,0.562,0.495,0.466
NCI-H1944,0.985,0.96,0.784,1.05,0.941,1.11,1.01,0.975,0.962,1,0.391,0.376,0.341,0.443,0.403,0.607,0.669,0.797,0.752,0.789
NCI-H1975,1,0.951,0.934,0.85,0.869,0.93,0.82,1.01,1.04,0.935,0.709,0.692,0.711,0.716,0.523,0.321,0.283,0.337,0.318,0.28
NCI-H1993,0.948,0.995,0.779,0.941,0.789,0.98,0.857,1.02,1,1.1,0.521,0.53,0.544,0.562,0.508,0.666,0.596,0.524,–,0.573
NCI-H2009,1.04,0.982,1.03,1.02,0.947,1.03,1.03,1.02,0.993,0.906,0.764,0.668,0.722,0.632,0.525,1.08,0.928,1.08,1.02,0.965
NCI-H2023,1.06,0.935,1.09,1.08,0.843,1.15,0.996,1.06,0.955,0.781,0.51,0.387,0.489,0.453,0.369,0.265,0.198,0.292,0.225,0.178
NCI-H2085,1.03,1,0.982,1.04,1.01,1.08,0.976,1.02,0.947,1.01,0.839,0.819,0.658,0.906,0.742,1.03,0.88,0.923,0.941,0.867
NCI-H2087,1.13,1.15,0.861,0.997,0.953,1.16,0.931,1.07,0.989,0.968,0.648,0.595,0.478,0.703,0.501,0.649,0.532,0.699,0.644,0.63
NCI-H2126,1.1,0.993,0.958,0.995,0.893,1.07,0.921,1.08,1.05,0.985,0.724,0.733,0.661,0.667,0.646,0.676,0.683,0.747,0.708,0.626
NCI-H2170,0.961,0.976,0.995,0.887,0.978,1.21,0.984,1.04,0.996,0.935,0.737,0.737,0.657,0.715,0.701,0.258,0.273,0.318,0.258,0.257
